Activity calls are given as the source filed them. The rule behind the calls is not given here.
Key:
[1] = Solubility of the compound; type: physicochemical
Mus musculus [2] = assay: Antidepressant activity in Swiss albino mouse assessed as decrease in immobility duration at 0.5 mg/kg, ip administered 30 mins prior to test measured after 30 mins by tail suspension test (reference value: 79.9%); type: functional; parameters: scale not given: the % may be the effect or the level left; settings: route intraperitoneal
Mus musculus [3] = assay: Antidepressant activity in Swiss albino mouse assessed as decrease in immobility time at 0.5 mg/kg, ip measured for 6 mins by forced swim test; type: functional, organism-based; parameters: dose 0.5 mg/kg
Mus musculus [4] = assay: Neurotoxicity in Swiss albino mouse assessed as deffect in motor coordination at 1 mg/kg, ip measured for 2 mins by rotarod test; type: toxicity, organism-based; parameters: dose 1 mg/kg, route intraperitoneal; settings: in vivo
Mus musculus [5] = assay: Antidepressant activity in Swiss albino mouse assessed as decrease in immobility time at 0.25 mg/kg, ip measured for 6 mins by forced swim test; type: functional, organism-based; parameters: dose 0.25 mg/kg
Mus musculus [6] = assay: Antidepressant activity in Swiss albino mouse assessed as decrease in immobility time at 30 mg/kg, ip measured for 6 mins by forced swim test; type: functional, organism-based; parameters: dose 30 mg/kg
Mus musculus [7] = assay: Antidepressant activity in Swiss albino mouse assessed as decrease in immobility duration at 30 mg/kg, ip administered 30 mins prior to test measured after 30 mins by tail suspension test (reference value: 79.9%); type: functional; parameters: scale not given: the % may be the effect or the level left; settings: route intraperitoneal

COc1ccccc1-c1cc2cc(C=O)cc(C)c2oc1=O
solubility [1]: Insoluble

CCC(C)c1cc(C=O)cc2cc(-c3cccc(OC)c3)c(=O)oc12 (stereo not given)
Activity (Mus musculus [2]): 70.6%

COc1ccc(-c2cc3cc(C=O)cc(C)c3oc2=O)c(OC)c1OC
Activity (Mus musculus [3]): Active | Activity (Mus musculus [4]): Non-toxic | Activity (Mus musculus [2]): 47.3%

COc1ccc(-c2cc3cc(C=O)cc(C)c3oc2=O)cc1OC
Activity (Mus musculus [3]): Active | Activity (Mus musculus [4]): Non-toxic | Activity (Mus musculus [5]): Active | Activity (Mus musculus [2]): 39.1%

COc1ccc(-c2cc3cc(C)c4ccccc4c3oc2=O)cc1
Activity (Mus musculus [3]): Active | Activity (Mus musculus [4]): Non-toxic | Activity (Mus musculus [5]): Active | Activity (Mus musculus [2]): 49.9%

COc1ccc(-c2cc3cc(C=O)cc(C)c3oc2=O)cc1
Activity (Mus musculus [2]): 78.1%

COc1ccc(-c2cc3cc(C)c4ccccc4c3oc2=O)cc1OC
solubility [1]: Insoluble

COc1ccc(-c2cc3cc(C)c4ccccc4c3oc2=O)c(OC)c1OC
Activity (Mus musculus [2]): 63.6%

CCC(C)c1cc(C=O)cc2cc(-c3ccc(OC)c(OC)c3)c(=O)oc12 (stereo not given)
Activity (Mus musculus [2]): 72.5%

CCC(C)c1cc(C=O)cc2cc(-c3ccc(OC)cc3)c(=O)oc12 (stereo not given)
Activity (Mus musculus [2]): 71.4%

CN(C)CCCN1c2ccccc2CCc2ccccc21 [IMIPRAMINE]
Activity (Mus musculus [6]): Active | Activity (Mus musculus [7]): 20.6%
